In ChEMBL document CHEMBL1201862, “PubChem BioAssay data set” (2004):
The source made the active and inactive calls.

How the values were obtained:
HEK293 [1] = assay: optical interference in Abeta FP readout, dose response, artefact control for IDE activator project, biochemical, fluorescence polarization (AID 588442); type: functional, cell-based; settings: Homo sapiens
HEK293 [2] = assay: membrane integrity loss in HEK cells – cell-based, fluorescence, cytotoxicity control for IDE activator project, dose response (AID 588440); type: functional; settings: Homo sapiens;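 further: cytotoxicity by LDH release measuring loss of membrane integrity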
[3] = viability of uninfected HEp-2 cells – cell-based, HTS, cytotoxicity control for RSV inhibitor project, dose response (AID 2410); type: functional; settings: human respiratory syncytial virus
Insulin-degrading enzyme [4] = target: T1, Insulin-degrading enzyme (Homo sapiens, UniProt P14735); assay: recombinant IDE activation, cell-free – biochemical, fluorescence polarization, counter-screen for IDE activator project, dose response (AID 588681)
T1 sequence (P14735 whole entry): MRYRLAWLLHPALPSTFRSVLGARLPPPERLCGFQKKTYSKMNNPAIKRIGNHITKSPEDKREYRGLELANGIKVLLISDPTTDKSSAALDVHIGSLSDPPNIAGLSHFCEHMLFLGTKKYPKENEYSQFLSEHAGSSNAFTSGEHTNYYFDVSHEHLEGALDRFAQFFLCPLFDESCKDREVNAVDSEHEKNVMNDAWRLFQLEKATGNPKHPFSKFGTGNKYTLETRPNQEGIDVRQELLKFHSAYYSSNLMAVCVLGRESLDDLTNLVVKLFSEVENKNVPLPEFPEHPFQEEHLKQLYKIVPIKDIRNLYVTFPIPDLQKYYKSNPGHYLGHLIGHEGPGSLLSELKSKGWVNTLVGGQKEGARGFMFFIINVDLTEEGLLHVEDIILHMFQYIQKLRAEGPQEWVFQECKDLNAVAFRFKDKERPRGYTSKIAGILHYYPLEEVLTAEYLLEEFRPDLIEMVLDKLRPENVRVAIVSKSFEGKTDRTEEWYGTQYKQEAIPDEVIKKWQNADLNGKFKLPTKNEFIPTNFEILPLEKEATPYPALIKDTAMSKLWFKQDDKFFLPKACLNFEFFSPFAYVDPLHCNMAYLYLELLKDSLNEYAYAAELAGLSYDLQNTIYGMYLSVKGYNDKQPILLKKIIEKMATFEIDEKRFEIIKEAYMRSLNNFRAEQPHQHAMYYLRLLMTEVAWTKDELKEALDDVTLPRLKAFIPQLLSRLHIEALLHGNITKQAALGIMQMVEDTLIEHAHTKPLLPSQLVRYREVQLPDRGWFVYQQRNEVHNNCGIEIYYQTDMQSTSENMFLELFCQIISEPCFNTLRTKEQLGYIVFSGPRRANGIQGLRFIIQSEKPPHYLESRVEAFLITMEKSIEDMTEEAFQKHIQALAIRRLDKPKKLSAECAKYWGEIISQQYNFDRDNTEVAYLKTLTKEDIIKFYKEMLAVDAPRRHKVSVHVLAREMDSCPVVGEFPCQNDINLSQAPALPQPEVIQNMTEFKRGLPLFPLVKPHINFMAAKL

Insulin-degrading enzyme [5] = target: T1, Insulin-degrading enzyme; assay: cellular IDE activation of Abeta substrate cleavage – fluorescence polarization, HEK cells, dose response (AID 588439); type: functional, cell-based
Escherichia coli = assay: microbe, parasite or virus in culture
[6] = HEK-293T cell viability reduction – luminescence, B-cell screen hits, cytotoxicity control for BCR NF-kB inhibitor project, dose response (AID 489021); type: functional, cell-based;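 further: HEK-293T cells carrying an NF-kB luciferase reporter; cells exposed to compound for about 14 hours before viability readout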
[7] = target: Peroxisome proliferator-activated receptor gamma/Nuclear receptor coactivator 3 (Homo sapiens, UniProt P37231); assay: TR-FRET dose response biochemical High Throughput Screening assay for agonists of the steroid receptor coactivator 3 (SRC-3) recruitment by the peroxisome proliferator-activated receptor gamma (PPAR gamma): non-selective agonists. [Related pubchem assays: 1301 (Confirmation screen.), 1048 (Primary screen.)]; type: functional
[8] = target: Peroxisome proliferator-activated receptor gamma/Nuclear receptor coactivator 2 (Homo sapiens, UniProt P37231); assay: (§1) TR-FRET dose response biochemical High Throughput Screening assay for agonists of the steroid receptor coactivator 2 (SRC-2) recruitment by the peroxisome proliferator-activated receptor gamma (PPAR gamma): non-selective agonists. [Related pubchem assays: 1297, 1032 ]; type: functional
Peroxisome proliferator-activated receptor gamma/Nuclear receptor coactivator 2, sequence (P37231 whole entry): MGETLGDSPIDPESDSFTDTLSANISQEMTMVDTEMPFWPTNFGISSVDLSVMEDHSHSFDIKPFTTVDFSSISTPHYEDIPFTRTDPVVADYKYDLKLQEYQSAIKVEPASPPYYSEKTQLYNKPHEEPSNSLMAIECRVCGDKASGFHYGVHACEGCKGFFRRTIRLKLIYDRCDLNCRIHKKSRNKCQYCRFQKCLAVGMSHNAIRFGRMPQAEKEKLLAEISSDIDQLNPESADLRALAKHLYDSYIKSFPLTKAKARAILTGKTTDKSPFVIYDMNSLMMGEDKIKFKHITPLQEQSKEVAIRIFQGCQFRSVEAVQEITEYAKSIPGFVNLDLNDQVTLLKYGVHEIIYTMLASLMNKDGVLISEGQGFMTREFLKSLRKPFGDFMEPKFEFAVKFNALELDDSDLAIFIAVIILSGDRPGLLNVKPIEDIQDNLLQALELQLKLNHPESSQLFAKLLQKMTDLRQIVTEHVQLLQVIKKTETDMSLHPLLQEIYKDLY
Peroxisome proliferator-activated receptor gamma/Nuclear receptor coactivator 2, sequence (Q15596 whole entry, further chain): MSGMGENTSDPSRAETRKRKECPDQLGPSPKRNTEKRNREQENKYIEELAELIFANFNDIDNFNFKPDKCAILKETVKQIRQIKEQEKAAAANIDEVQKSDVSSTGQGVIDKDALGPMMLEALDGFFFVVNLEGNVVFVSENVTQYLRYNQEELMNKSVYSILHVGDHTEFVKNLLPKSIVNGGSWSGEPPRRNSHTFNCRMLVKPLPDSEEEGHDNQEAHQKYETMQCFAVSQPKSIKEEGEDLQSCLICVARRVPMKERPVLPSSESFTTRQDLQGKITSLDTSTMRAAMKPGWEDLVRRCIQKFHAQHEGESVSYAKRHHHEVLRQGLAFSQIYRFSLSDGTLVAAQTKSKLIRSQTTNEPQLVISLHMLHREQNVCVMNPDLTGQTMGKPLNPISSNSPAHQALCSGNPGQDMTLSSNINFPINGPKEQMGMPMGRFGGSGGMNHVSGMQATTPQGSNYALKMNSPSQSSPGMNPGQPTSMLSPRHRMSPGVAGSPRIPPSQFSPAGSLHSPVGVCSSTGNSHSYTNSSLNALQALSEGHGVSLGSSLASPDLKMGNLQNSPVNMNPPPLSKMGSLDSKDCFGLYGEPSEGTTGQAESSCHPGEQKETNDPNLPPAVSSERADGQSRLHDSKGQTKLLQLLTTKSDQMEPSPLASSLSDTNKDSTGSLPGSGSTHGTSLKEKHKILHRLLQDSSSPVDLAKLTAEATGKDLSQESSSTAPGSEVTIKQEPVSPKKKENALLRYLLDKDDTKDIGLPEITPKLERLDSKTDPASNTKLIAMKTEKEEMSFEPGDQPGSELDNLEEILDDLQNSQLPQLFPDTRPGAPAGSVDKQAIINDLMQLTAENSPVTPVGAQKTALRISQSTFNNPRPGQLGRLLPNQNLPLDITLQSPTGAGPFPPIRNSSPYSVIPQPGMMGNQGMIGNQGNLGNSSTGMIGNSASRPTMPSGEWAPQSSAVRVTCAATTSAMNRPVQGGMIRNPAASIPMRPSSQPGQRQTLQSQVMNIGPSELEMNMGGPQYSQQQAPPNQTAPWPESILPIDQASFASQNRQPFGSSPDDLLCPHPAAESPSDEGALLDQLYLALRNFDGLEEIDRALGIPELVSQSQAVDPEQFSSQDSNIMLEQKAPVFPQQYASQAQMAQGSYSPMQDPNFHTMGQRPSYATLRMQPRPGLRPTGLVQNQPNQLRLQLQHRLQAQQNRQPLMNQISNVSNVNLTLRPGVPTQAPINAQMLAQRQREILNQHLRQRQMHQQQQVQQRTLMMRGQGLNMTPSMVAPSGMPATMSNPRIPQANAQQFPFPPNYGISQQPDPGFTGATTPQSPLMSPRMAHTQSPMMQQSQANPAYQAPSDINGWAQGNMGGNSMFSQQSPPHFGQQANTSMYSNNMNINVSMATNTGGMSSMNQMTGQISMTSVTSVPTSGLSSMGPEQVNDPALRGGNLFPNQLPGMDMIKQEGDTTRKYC

[9] = target: Peroxisome proliferator-activated receptor gamma/Nuclear receptor coactivator 1 (Homo sapiens, UniProt P37231); assay: as §1, with “1 (SRC-1)” for “2 (SRC-2)”, “assays (depositor defined):AID1300, AID1808, AID504735, AID631]” for “assays: 1297, 1032 ]”; type: protein assay
Peroxisome proliferator-activated receptor gamma/Nuclear receptor coactivator 1, sequence (P37231 whole entry): as the sequence (P37231 whole entry) above
Peroxisome proliferator-activated receptor gamma/Nuclear receptor coactivator 1, sequence (Q15788 whole entry, further chain): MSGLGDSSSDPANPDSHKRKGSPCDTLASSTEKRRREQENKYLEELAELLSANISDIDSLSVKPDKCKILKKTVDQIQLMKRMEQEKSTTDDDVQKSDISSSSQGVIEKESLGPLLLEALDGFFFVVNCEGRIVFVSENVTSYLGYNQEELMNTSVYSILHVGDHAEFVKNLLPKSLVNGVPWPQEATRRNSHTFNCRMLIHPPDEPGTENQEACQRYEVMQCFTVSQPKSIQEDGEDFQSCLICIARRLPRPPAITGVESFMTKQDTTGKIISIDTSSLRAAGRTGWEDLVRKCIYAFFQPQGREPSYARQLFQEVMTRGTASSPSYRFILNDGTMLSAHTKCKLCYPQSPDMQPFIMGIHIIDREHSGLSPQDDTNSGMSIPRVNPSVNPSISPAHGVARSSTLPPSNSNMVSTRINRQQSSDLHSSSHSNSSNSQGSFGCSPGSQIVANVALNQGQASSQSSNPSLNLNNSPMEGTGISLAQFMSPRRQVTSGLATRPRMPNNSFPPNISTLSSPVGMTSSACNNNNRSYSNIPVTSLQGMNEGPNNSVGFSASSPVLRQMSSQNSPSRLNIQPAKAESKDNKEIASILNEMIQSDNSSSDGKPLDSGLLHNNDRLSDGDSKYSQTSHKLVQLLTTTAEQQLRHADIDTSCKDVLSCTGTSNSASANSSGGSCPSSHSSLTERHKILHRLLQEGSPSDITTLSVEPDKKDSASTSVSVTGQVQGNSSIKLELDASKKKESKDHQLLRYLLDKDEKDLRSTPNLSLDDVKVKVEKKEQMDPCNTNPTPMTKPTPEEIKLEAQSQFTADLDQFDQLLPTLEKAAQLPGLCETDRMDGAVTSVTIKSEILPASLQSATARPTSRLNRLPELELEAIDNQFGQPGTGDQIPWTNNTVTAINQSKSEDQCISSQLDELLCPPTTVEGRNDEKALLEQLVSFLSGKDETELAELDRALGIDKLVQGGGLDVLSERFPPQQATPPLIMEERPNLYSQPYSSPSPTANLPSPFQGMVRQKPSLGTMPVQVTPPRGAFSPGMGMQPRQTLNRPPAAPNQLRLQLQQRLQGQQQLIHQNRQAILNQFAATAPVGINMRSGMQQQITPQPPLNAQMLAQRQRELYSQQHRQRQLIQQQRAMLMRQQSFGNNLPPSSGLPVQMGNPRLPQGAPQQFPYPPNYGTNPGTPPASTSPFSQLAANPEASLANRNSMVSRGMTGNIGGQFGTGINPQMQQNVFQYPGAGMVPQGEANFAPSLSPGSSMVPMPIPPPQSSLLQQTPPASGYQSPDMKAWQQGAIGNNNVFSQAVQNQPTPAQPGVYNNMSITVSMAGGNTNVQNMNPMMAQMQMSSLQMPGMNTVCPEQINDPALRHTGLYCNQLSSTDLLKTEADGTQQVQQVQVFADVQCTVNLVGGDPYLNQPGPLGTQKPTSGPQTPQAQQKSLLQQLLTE

[10] = reduction of Shn3 3'UTR-driven luciferase in osteoblasts – cell-based, Clone20 osteoblasts, firefly luciferase, cherry-picked, dose response (AID 624132); type: functional;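 further: firefly luciferase luminescence from reporter carrying the Shn3 3'UTR in osteoblasts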
HEK293 [11] = assay: NOD2 signaling inhibitors in MDP-stimulated cells, cell-based, uHTS, luminescence (AID 2001); type: functional; settings: Homo sapiens
HEK293 [12] = assay: cells; type: functional, cell-based; settings: Homo sapiens
[13] = target: T2, Calpain-2 catalytic subunit (Sus scrofa, UniProt P43367); assay: m-calpain protease blockers, concentration series – biochemical, fluorogenic peptide substrate, dose response (AID 1420); type: functional
T2 sequence (P43367 whole entry): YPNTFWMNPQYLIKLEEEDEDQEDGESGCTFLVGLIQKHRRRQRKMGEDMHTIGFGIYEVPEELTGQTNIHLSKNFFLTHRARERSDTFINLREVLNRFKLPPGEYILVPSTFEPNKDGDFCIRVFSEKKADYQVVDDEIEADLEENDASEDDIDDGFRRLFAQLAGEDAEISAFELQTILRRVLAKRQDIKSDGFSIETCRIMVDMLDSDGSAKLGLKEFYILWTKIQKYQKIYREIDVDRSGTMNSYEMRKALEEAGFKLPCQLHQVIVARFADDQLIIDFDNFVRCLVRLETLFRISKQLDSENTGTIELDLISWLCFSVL

HEK293 [14] = assay: cells; type: functional, cell-based; settings: Homo sapiens; remark: listed apart in the source
[15] = non-specific 3'UTR reporter inhibition in Clone20-Shn3RL – cell-based, Renilla luciferase, cherry-picked, counter-screen for Shn3 inhibitor project, dose response (AID 624133); type: functional
[16] = loss of viability in HepG2 cells – cell-based, CellTiter-Glo, cherry-picked, cytotoxicity control for Shn3 inhibitor project, dose response (AID 624134); type: functional
HEK293 [17] = assay: inhibition of NOD1-driven NF-kB reporter – cell-based, luminescence, uHTS, primary screen (AID 1578); type: functional; settings: Homo sapiens
Cytochrome P450 3A4 = Cytochrome P450 3A4 (Homo sapiens, UniProt P08684);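 further: CYP3A4 tested as one member of a cytochrome P450 panel screen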
Cytochrome P450 3A4, sequence (P08684 whole entry): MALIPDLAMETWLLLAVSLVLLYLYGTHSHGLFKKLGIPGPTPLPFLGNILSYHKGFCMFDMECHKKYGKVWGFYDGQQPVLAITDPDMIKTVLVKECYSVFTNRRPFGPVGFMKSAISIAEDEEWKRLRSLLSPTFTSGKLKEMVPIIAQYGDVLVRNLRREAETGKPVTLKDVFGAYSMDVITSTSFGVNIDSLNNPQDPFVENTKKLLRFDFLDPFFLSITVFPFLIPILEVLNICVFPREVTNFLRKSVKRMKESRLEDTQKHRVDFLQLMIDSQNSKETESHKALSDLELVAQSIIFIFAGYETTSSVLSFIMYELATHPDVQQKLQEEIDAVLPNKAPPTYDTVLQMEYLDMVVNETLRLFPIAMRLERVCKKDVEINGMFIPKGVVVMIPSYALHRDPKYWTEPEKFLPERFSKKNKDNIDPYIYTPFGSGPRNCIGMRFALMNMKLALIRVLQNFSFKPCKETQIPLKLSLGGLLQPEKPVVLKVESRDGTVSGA

Cytochrome P450 2C19 = Cytochrome P450 2C19 (Homo sapiens, UniProt P33261); assay: Cytochrome panel assay with activity outcomes. Panel member name: p450-cyp2c19 Compounds with AC50 equal or less than 10 uM are considered active; type: functional; settings: read-out: AC50
Cytochrome P450 2C19, sequence (P33261 whole entry): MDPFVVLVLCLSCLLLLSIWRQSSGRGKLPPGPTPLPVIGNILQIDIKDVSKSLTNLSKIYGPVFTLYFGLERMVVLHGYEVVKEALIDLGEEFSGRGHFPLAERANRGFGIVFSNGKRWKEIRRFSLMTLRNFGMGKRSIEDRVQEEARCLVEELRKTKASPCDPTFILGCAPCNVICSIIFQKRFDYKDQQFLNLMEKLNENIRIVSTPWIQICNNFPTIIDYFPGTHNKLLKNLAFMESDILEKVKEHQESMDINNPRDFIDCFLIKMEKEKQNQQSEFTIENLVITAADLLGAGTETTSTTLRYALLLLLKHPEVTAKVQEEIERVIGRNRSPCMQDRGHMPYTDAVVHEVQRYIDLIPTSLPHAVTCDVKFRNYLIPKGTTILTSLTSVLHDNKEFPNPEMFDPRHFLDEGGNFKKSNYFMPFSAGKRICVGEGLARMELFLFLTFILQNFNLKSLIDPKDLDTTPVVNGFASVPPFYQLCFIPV

Nc1c(C(=O)CSc2nc3ccccc3o2)c(=O)[nH]c(=O)n1C1CC1
EC50 (HEK293 [1]): > 54.7 µM (inactive) | IC50 (HEK293 [2]): > 89.2 µM (inactive) | CC50 [3]: 26.3 µM (active) | EC50 (Insulin-degrading enzyme [4]): > 54.7 µM (inactive) | EC50 (Insulin-degrading enzyme [5]): > 54.7 µM (inactive)

O=C(CN(Cc1ccco1)C(=O)c1ccccc1F)Nc1ccccc1C(F)(F)F
AC50 (Escherichia coli): 103 µM (active)

CCn1c(=O)cc(SCC(=O)N2CCC3(CC2)OCCO3)c2ccccc21
IC50 [6]: > 80 µM (inactive) | EC50 [7]: > 79.4 µM (not active) | EC50 [8]: > 79.4 µM (not active) | EC50 [9]: > 79.4 µM (inactive)

CC(C)Cn1c(N)c(C(=O)COC(=O)CC23CC4CC(CC(C4)C2)C3)c(=O)n(C)c1=O
AC50 [10]: 1.51 µM (active) | IC50 (HEK293 [11]): 3.31 µM (active) | IC50 (HEK293 [12]): 2.31 µM (active) | IC50 [13]: 5.92 µM (not active) | IC50 (HEK293 [14]): 6.35 µM (active) | AC50 [15]: 0.435 µM (active) | AC50 [16]: 1.7 µM (active) | EC50 (HEK293 [17]): 3.06 µM (active)

O=C(CCNC(=O)c1ccc([N+](=O)[O-])cc1)Nc1cccc(S(=O)(=O)N2CCCCCC2)c1
AC50 (Escherichia coli): 57 µM (active)

Cc1cc(NC(=O)CSc2nc3ccsc3c(=O)n2CCCCC(=O)O)no1
AC50 (Cytochrome P450 3A4): inconclusive | AC50 (Cytochrome P450 2C19): 3.98 µM (inconclusive)

CO[C@@]12[C@@H]3N[C@@H]3CN1C1=C(C(=O)C(N)=C(C)C1=O)[C@@H]2COC(N)=O
AC50 (Escherichia coli): 0.496 µM (active)
